# Reference: patent US9204653B2, “5-fluoro pyrimidine derivatives” (DOW AGROSCIENCES LLC, priority 2008, dated 2015)
# Like-named read-outs stand apart in the source and are kept apart here.
# System: Mycosphaerella graminicola; Anamorph: Septoria tritici; Bayer Code SEPTTR
# Test: Leaf blotch of wheat, foliar fungicide treatment, one day protectant (1DP) or three day curative (3DC)
# Type: in vivo, Septoria tritici on wheat plants (variety Yuma)
# Details: Zymoseptoria tritici; for pest or weed control at 50 ppm / pest or weed control at 200 ppm: % disease control rating
# [1] = 24 h, one day protectant (1DP), 25 ppm (first 1DP column), percent control rating, read-out: SETTTR 1DP 25 ppm
# [2] = 24 h, one day protectant (1DP), 25 ppm as printed (second 1DP column), percent control rating, read-out: SETTTR 1DP 25 ppm
# [3] = 72 h, three day curative (3DC), 25 ppm, percent control rating, read-out: SEPTTR 3DC 25 ppm
# [4] = 72 h, three day curative (3DC), percent control rating, read-out: SEPTTR 3DC 100 ppm
# [5] = 24 h, one day protectant, 25 ppm, rating of percent disease control, read-out: SETTTR 1DP 25 ppm
# [6] = 24 h, one day protectant, rating of percent disease control, read-out: SEPTTR 1DP 100 ppm
# [7] = 72 h, three day curative, 25 ppm, rating of percent disease control, read-out: SEPTTR 3DC 25 ppm
# [8] = 72 h, three day curative, rating of percent disease control, read-out: SEPTTR 3DC 100 ppm
# [9] = 24 h, one day protectant (1DP), 25 ppm, rating of percent disease control, read-out: SETTTR 1DP 25 ppm
# [10] = 24 h, one day protectant (1DP), rating of percent disease control, read-out: SEPTTR 1DP 100 ppm
# [11] = 72 h, three day curative (3DC), 25 ppm, rating of percent disease control, read-out: SEPTTR 3DC 25 ppm
# [12] = 72 h, three day curative (3DC), rating of percent disease control, read-out: SEPTTR 3DC 100 ppm
SMILES,pest or weed control at 25 ppm [1] [%],pest or weed control at 25 ppm [2] [%],pest or weed control at 25 ppm [3] [%],pest or weed control at 100 ppm [4] [%],pest or weed control at 25 ppm [9] [%],pest or weed control at 100 ppm [10] [%],pest or weed control at 25 ppm [11] [%],pest or weed control at 100 ppm [12] [%],other results
CCC(/C=N/Nc1nc(OC)ncc1F)CC [Compound 1021],0 to 25,26 to 50,26 to 50,26 to 50,–,–,–,–,–
Fc1cnc(OCc2ccco2)nc1NCc1ccc(Cl)cc1 [Compound 946],–,–,–,–,–,–,–,–,"pest or weed control at 50 ppm (24 h, one day protectant): 51 to 75%; pest or weed control at 200 ppm (24 h, one day protectant): 76 to 100%"
Fc1ccc(COc2ncc(F)c(NC(=S)NCc3ccccc3F)n2)cc1 [Compound 572],–,–,–,–,–,–,–,–,pest or weed control at 25 ppm [5]: 26 to 50%; pest or weed control at 100 ppm [6]: 76 to 100%; pest or weed control at 25 ppm [7]: 26 to 50%; pest or weed control at 100 ppm [8]: 51 to 75%
O=C(NCc1ccccc1F)Nc1nc(O)ncc1F [Compound 970],26 to 50,51 to 75,26 to 50,26 to 50,–,–,–,–,–
Cc1cc(C(C)Oc2ncc(F)c(N)n2)ccc1Cl (stereo not shown) [Compound 597],–,–,–,–,–,–,–,–,pest or weed control at 25 ppm [5]: 76 to 100%; pest or weed control at 100 ppm [6]: 76 to 100%; pest or weed control at 25 ppm [7]: 76 to 100%; pest or weed control at 100 ppm [8]: 76 to 100%
COc1cccc(COc2ncc(F)c(/N=C/N3CCOCC3)n2)c1 [Compound 704],–,–,–,–,–,–,–,–,pest or weed control at 25 ppm [5]: 76 to 100%; pest or weed control at 100 ppm [6]: 76 to 100%; pest or weed control at 25 ppm [7]: 76 to 100%; pest or weed control at 100 ppm [8]: 76 to 100%
O=C(NCc1ccco1)Nc1nc(O)ncc1F [Compound 981],0 to 25,0 to 25,0 to 25,0 to 25,–,–,–,–,–
Cn1ccc(COc2ncc(F)c(NCO)n2)n1 [Compound 245],–,–,–,–,51 to 75,76 to 100,51 to 75,76 to 100,–
COc1cccc(COc2ncc(F)c(NC(C)=S)n2)c1 [Compound 770],–,–,–,–,76 to 100,76 to 100,76 to 100,76 to 100,–
CCOCNc1nc(OCc2ccccc2OC)ncc1F [Compound 331],–,–,–,–,76 to 100,76 to 100,76 to 100,76 to 100,–
CNC(=S)Nc1nc(OCc2ccc(C)cc2)ncc1F [Compound 182],–,–,–,–,76 to 100,76 to 100,76 to 100,76 to 100,–
CCOC(=O)CCC(=O)NNc1nc(OCc2ccccc2)ncc1F [Compound 344],–,–,–,–,26 to 50,26 to 50,0 to 25,26 to 50,–
COc1cccc(COc2ncc(F)c(NNC3CCCCC3)n2)c1 [Compound 294],–,–,–,–,0 to 25,76 to 100,0 to 25,76 to 100,–
C=CCOC(=O)Nc1nc(OCc2ccc(F)cc2)ncc1F [Compound 985],76 to 100,76 to 100,76 to 100,76 to 100,–,–,–,–,–
O=C(NCc1ccccc1)Nc1nc(OCc2ccc(F)cc2)ncc1F [Compound 59],–,–,–,–,–,–,–,–,"pest or weed control at 25 ppm (24 h, one day protectant (1DP), 25 ppm, percent disease control rating, read-out: SETTTR 1DP 25 ppm): 0 to 25%; pest or weed control at 100 ppm (24 h, one day protectant (1DP), percent disease control rating, read-out: SEPTTR 1DP 100 ppm): 0 to 25%; pest or weed control at 25 ppm (72 h, three day curative (3DC), 25 ppm, percent disease control rating, read-out: SEPTTR 3DC 25 ppm): 0 to 25%; pest or weed control at 100 ppm (72 h, three day curative (3DC), percent disease control rating, read-out: SEPTTR 3DC 100 ppm): 26 to 50%"
COc1ccccc1NNc1nc(OCc2ccc(C)cc2)ncc1F [Compound 996],26 to 50,51 to 75,26 to 50,51 to 75,–,–,–,–,–
CCCCCNC(=O)Nc1nc(O)ncc1F [Compound 972],51 to 75,76 to 100,51 to 75,51 to 75,–,–,–,–,–
Fc1cnc(OCc2cccs2)nc1NC1CC1 [Compound 866],–,–,–,–,–,–,–,–,"pest or weed control at 50 ppm (24 h, one day protectant): 0 to 25%; pest or weed control at 200 ppm (24 h, one day protectant): 76 to 100%"
CCOC(=O)COC(=O)Nc1nc(OCc2cccc(F)c2)ncc1F [Compound 199],–,–,–,–,0 to 25,76 to 100,51 to 75,76 to 100,–
NN(Cc1ccccc1Cl)c1nc(OCc2ccc(F)cc2)ncc1F [Compound 456],–,–,–,–,51 to 75,76 to 100,0 to 25,76 to 100,–
